PubChem BioAssay AID1334 (NMMLSC, 2008)

These compounds were tested against Cell division control protein 42 homolog (Homo sapiens) (UniProt P60953) (assay: wildtype Cdc42 GTP-binding inhibitors, dose response, biochemical, multiplex bead flow cytometry, Bodipy-FL-GTP (AID 1334;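 note: potency of inhibiting fluorescent GTP binding to Cdc42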)). Settings: bead-based flow cytometry, Bodipy-FL-GTP binding to GST-Cdc42.
Sequence of Cell division control protein 42 homolog (Homo sapiens) (P60953 whole entry, looked up): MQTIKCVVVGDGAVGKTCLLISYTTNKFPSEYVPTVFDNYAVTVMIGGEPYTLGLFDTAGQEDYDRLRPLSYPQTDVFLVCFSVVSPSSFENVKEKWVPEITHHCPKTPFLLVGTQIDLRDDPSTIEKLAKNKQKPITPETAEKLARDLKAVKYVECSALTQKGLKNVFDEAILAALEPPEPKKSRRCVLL

| Structure (SMILES) | EC50 |
| --- | --- |
| CCn1nc(/C=C/c2ccccc2)nc2c(=O)n(C)c(=O)nc1-2 | 1.55 µM |
| CCC(C(=O)NC1CCCC1)N(C(=O)Cn1nnc(-c2ccc(C)o2)n1)c1cnc2ccccc2c1 (configuration not stated) | 34.6 µM |
| NS(=O)(=O)c1ccc(N2N=C(c3ccccc3)CC2c2ccccc2)cc1 (configuration not stated) | 8.22 µM |
| O=C(O)/C=C/c1cn(Cc2ccccc2)nc1-c1cccs1 | 3.99 µM |
| Cc1nc2c(=O)n(C)c(=O)nc-2n(C)n1 | 1.96 µM |
| COc1ccc(C2CC(c3ccccc3)=NN2c2ccc(S(N)(=O)=O)cc2)cc1 (configuration not stated) | 3.2 µM |
| COC(=O)c1cccnc1SCCc1ccccc1 | 18.7 µM |
| Cc1sc2nc3ccc(NCc4ccco4)nn3c(=O)c2c1C | 21.5 µM |
| O=C(O)c1ccccc1NCCc1ccc(Cl)cc1 | 1.53 µM |
| CCS(=O)(=O)N1N=C(c2cccc(NS(C)(=O)=O)c2)CC1c1ccc(C)cc1 (configuration not stated) | 2.6 µM |
| O=C(Nc1nnc(-c2ccc3c(c2)OCCO3)o1)c1ccc(Cc2ccccc2)cc1 | 0.355 µM |
| O=C(O)c1ccccc1OCc1ccccc1Br | 0.103 µM |
| CS(=O)(=O)c1ccc(C(=O)OCC(=O)NC(=O)C2CCCCC2)cc1[N+](=O)[O-] | 53.1 µM |
| S=C(Nc1ccc(Oc2ccccc2)cc1)NC1CCCCC1 | 32.8 µM |
| CCCN1C(=O)/C(=C/C=C2\N(CC)c3ccccc3C2(C)C)SC1=S | 5.49 µM |
| CCOC(=O)c1cc([N+](=O)[O-])c([N+](=O)[O-])cc1NC(C)=O | 7.19 µM |

| Structure (SMILES) | EC50 |
| --- | --- |
| CC(C)C(NCc1c(Cl)cccc1Cl)C(=O)O (configuration not stated) | 6.4 µM |
| COc1ccc(-c2cc(C#N)nc(N3CCNCC3)n2)cc1 | 28.1 µM |
| O=C(NCc1cccs1)c1cccnc1C(=O)O | 4.01 µM |
| NS(=O)(=O)c1ccc(N2N=C(c3ccccc3)CC2c2cccc(F)c2)cc1 (configuration not stated) | 4.87 µM |
| O=C(O)c1ccccc1Sc1ncnc2sc3c(c12)CCC3 | 4.38 µM |
| CC(=O)c1ccc(C#CC(=O)c2ccc([N+](=O)[O-])cc2)cc1 | 0.394 µM |
| CCOc1ccc(/C=C2\SC(N3CCc4ccccc4C3)=NC2=O)cc1 | 40.5 µM |
| CCc1ccc(NS(=O)(=O)c2ccc3[nH]cc(C(=O)N4CCc5ccccc54)c(=O)c3c2)cc1 | 18.9 µM |
| CCOC(=O)Cn1nnnc1C(C(C)C)N(Cc1cccs1)Cc1cc2cc(C)ccc2[nH]c1=O (configuration not stated) | 7.28 µM |
| CCOC(=O)c1c(NC(=O)C(=O)N/N=C/c2ccc(O)c(OC)c2)sc2c1CCCCC2 | 2.87 µM |
| Cc1cc(C)c(C)c(C(=O)c2ccccc2C(=O)O)c1C | 5.95 µM |
| CCCS(=O)(=O)c1nnnn1-c1cccc(OC)c1 | 19.3 µM |
| N#Cc1c(-c2ccccc2)nc(SCC(=O)Nc2ccccc2)[nH]c1=O | 2.1 µM |
| Cc1cccc2cc(CN(Cc3cccs3)C(c3nnnn3C3CCCC3)C(C)C)c(=O)[nH]c12 (configuration not stated) | 1.96 µM |
| Cc1ccc(C)c(OCCn2cc(C(=O)O)c3ccccc32)c1 | 0.584 µM |
| CCCc1nc2c(=O)n(C)c(=O)nc-2n(C)n1 | 1.33 µM |
